Measured values published in article PMC8038350, “Nordihydroguaiaretic Acid as a Novel Substrate and Inhibitor of Catechol O-Methyltransferase Modulates 4-Hydroxyestradiol-Induced Cyto- and Genotoxicity in MCF-7 Cells” (Molecules, 2021).

Tests used:
[1] = biological target: T1, catechol O-methyl transferase (COMT) (Homo sapiens, UniProt P21964); assay: 4-MeOE2 formation in MCF-7 cells/lysate; […] decrease at […]; format: cell-based; conditions: MCF7
T1 construct: endogenous COMT in MCF-7 whole cell lysate
T1 sequence (P21964 1-271): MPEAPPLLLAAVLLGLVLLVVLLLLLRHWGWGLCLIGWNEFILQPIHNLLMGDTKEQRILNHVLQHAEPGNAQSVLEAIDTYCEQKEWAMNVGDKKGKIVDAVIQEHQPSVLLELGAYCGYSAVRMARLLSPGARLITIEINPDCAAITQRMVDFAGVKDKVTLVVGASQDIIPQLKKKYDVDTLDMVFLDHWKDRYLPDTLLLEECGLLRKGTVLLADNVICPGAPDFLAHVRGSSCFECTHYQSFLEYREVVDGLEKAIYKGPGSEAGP

[2] = biological target: T2, catechol O-methyl transferase (COMT) (Homo sapiens, UniProt P21964); assay: inhibition of recombinant COMT O-methylation of 4-OHE2 by HPLC-DAD (IC50 […]); also a substrate (Km […]); format: biochemical
T2 construct: recombinant human soluble COMT, hexahistidine-tagged
T2 sequence (P21964 51-271 limits assumed): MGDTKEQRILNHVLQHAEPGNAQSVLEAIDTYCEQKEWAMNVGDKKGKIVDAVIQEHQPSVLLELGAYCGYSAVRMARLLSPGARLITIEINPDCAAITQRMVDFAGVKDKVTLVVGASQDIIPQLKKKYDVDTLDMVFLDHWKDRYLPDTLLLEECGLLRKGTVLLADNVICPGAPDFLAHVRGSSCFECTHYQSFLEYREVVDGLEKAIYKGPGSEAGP

SMILES: O=C(c1cc(O)c(O)c([N+](=O)[O-])c1)c1ccccc1F [Ro 41-0960]
- inhibition at 10 µM [1]: 88%

SMILES: C[C@H](Cc1ccc(O)c(O)c1)[C@H](C)Cc1ccc(O)c(O)c1 [compound 1, 4-[4-(3,4-dihydroxyphenyl)-2,3-dimethylbutyl] benzene-1,2-diol]
- Ki [2]: 15.7 µM
